Type in all cases: ADME
For data set [1], the target named is T1, Cytochrome P450 3A4 (Homo sapiens, UniProt P08684). Description: Binding affinity to recombinant CYP3A4 NF-14 expressed in Escherichia coli at maximum spectrum 420 to 435 and a trough at 390 to 405 nm by UV-Visible spectroscopy. The settings on record: recombinant enzyme, 0.405 µM.
The target in data set [2] is T1, Cytochrome P450 3A4. Description: Inhibition of recombinant CYP3A4 NF-14 expressed in Escherichia coli assessed as formation of 6-beta-hydroxytestosterone using testosterone as substrate after 5 mins by HPLC based UV method.
Data set [3] concerns the target T1, Cytochrome P450 3A4. Description: Intrinsic clearance assessed as CYP3A4-mediated clearance. The following applies: recombinant enzyme.
Data set [4] concerns the target T1, Cytochrome P450 3A4. The data set can be described thus: Binding affinity to recombinant CYP3A4 NF-14 expressed in Escherichia coli at maximum spectrum 385 to 390 nm and a trough at 415 to 420 nm by UV-Visible spectroscopy. The following applies: recombinant enzyme.
In data set [5] the target is T1, Cytochrome P450 3A4. Description: Metabolic stability of the compound assessed as CYP3A4 NF-14-mediated ratio of product formation from functional group oxidation at ring A to aromatic hydroxylation at ring B.
For data set [6], the target named is T1, Cytochrome P450 3A4. The data set can be described thus: (§1) Metabolic stability of the compound assessed as CYP3A4 NF-14-mediated N-demethylation.
For data set [7], the target named is T1, Cytochrome P450 3A4. Description: Metabolic stability of the compound assessed as CYP3A4 NF-14-mediated aromatic hydroxylation at ring-A.
Data set [8] has as its target T1, Cytochrome P450 3A4. The data set can be described thus: Metabolic stability of the compound assessed as CYP3A4 NF-14-mediated ratio of product formation from functional group oxidation at ring A to aromatic hydroxylation at ring A.
The next data set deals with CYP3A4 (Homo sapiens, UniProt P08684). Described as §1. The settings on record: human, CYP3A4 NF-14.
For data set [9], the target named is T1, Cytochrome P450 3A4. Description: Metabolic stability of the compound assessed as CYP3A4 NF-14-mediated aromatic hydroxylation at ring-B.

The structures appear in SMILES notation. pKi: −log10 of the molar value.

The term pKi denotes the Ki on a negative log10 scale, so that one unit is a factor of ten. By Km is commonly meant the concentration of substrate that gives half-maximal velocity.

T1 sequence (P08684 whole entry): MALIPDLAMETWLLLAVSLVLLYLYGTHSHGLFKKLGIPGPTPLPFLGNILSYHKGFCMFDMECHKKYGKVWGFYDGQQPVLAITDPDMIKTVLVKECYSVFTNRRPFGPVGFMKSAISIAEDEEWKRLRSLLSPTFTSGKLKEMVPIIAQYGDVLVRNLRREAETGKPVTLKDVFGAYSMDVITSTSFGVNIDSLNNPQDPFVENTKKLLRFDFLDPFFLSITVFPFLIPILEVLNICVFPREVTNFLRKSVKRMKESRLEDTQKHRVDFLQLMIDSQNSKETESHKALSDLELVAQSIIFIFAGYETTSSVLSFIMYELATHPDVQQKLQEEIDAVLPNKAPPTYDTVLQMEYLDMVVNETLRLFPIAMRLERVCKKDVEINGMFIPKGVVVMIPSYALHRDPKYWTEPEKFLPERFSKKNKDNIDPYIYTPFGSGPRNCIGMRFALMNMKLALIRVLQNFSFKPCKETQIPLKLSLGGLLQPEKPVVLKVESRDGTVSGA
CYP3A4, sequence (P08684 whole entry): as above

`CN(C)c1ccc(NC(=O)c2cc(-c3ccncn3)nc3ccccc23)cc1`: the result on Cytochrome P450 3A4 [1] was Active. The pKi at Cytochrome P450 3A4 [2] was 5.08. In addition, at Cytochrome P450 3A4 [3], the CL turned out to be 3.4 µM⁻¹ min⁻¹.

For `O=C(Nc1ccccc1)c1cc(-c2ccccc2)nc2ccccc12`, at Cytochrome P450 3A4 [4], the outcome was Active. Moreover, at Cytochrome P450 3A4 [2], the pKi is 5.39. Moreover, the Ratio on Cytochrome P450 3A4 [5] is listed as 1.3. In addition, at Cytochrome P450 3A4 [3], the CL was 1.3 µM⁻¹ min⁻¹.

`COc1ccc(NC(=O)c2cc(-c3ccncn3)nc3ccccc23)cc1`: at Cytochrome P450 3A4 [1], the outcome was Active. Further, the pKi on Cytochrome P450 3A4 [2] was 5.66. In addition, at Cytochrome P450 3A4 [3], the CL worked out at 3.3 µM⁻¹ min⁻¹.

Regarding `CN(C)c1ccc(NC(=O)c2cc(-c3cnccn3)nc3ccccc23)cc1`, the result at Cytochrome P450 3A4 [1] was Active. The pKi at Cytochrome P450 3A4 [2] is 4.80. For the same compound, on Cytochrome P450 3A4 [3], the CL is 2.8 µM⁻¹ min⁻¹.

For `COc1ccc(NC(=O)c2cc(-c3ccccn3)nc3ccccc23)cc1`, at Cytochrome P450 3A4 [4], the result was Active. Moreover, on Cytochrome P450 3A4 [2], the pKi was 4.92. Further, the CL at Cytochrome P450 3A4 [3] was 2.2 µM⁻¹ min⁻¹.

Take `O=C(Nc1ccccc1)c1cc(-c2ccncn2)nc2ccccc12`: the result on Cytochrome P450 3A4 [1] was Active. The pKi at Cytochrome P450 3A4 [2] is 5.66. Also, the CL on Cytochrome P450 3A4 [3] was determined as 3.2 µM⁻¹ min⁻¹.

Turning to `CN(C)c1ccc(NC(=O)c2cc(-c3ccncc3)nc3ccccc23)cc1`, on Cytochrome P450 3A4 [1], the outcome was Active. The pKi on Cytochrome P450 3A4 [2] was 6.10. Further, the results for the Kcat at Cytochrome P450 3A4 [6] and at Cytochrome P450 3A4 [7] were 0.218 s⁻¹ and 0 s⁻¹, respectively. On Cytochrome P450 3A4 [3], the CL is 12.7 µM⁻¹ min⁻¹.

For the compound `O=C(Nc1ccccc1)c1cc(-c2cnccn2)nc2ccccc12`, the outcome on Cytochrome P450 3A4 [1] was Active. Besides, the pKi on Cytochrome P450 3A4 [2] is 5.16. Further, the CL on Cytochrome P450 3A4 [3] amounted to 2.5 µM⁻¹ min⁻¹.

On to `Cc1ccc(NC(=O)c2cc(-c3ccncn3)nc3ccccc23)cc1`, for which the outcome on Cytochrome P450 3A4 [1] was Active. For the same compound, the pKi on Cytochrome P450 3A4 [2] was 5.52. For the same compound, the CL on Cytochrome P450 3A4 [3] was determined as 4 µM⁻¹ min⁻¹.

In the case of `Cc1ccc(NC(=O)c2cc(-c3ccccn3)nc3ccccc23)cc1`, the result at Cytochrome P450 3A4 [4] was Active. For the same compound, the pKi on Cytochrome P450 3A4 [2] was 5.41. Moreover, on Cytochrome P450 3A4 [3], the CL came out at 2.9 µM⁻¹ min⁻¹.

For `O=C(Nc1ccccc1)c1cc(-c2ccncc2)nc2ccccc12`, the result on Cytochrome P450 3A4 [1] was Active. In addition, the pKi at Cytochrome P450 3A4 [2] was 6.15. Besides, the CL at Cytochrome P450 3A4 [3] was found to be 12.1 µM⁻¹ min⁻¹. The Ratio on Cytochrome P450 3A4 [8] came out at 1.3.

As for `CN(C)c1ccc(NC(=O)c2cc(-c3ccccn3)nc3ccccc23)cc1`, the result on Cytochrome P450 3A4 [4] was Active. The pKi on Cytochrome P450 3A4 [2] is 4.48. At Cytochrome P450 3A4 [3], the CL stood at 1 µM⁻¹ min⁻¹.

With `Cc1ccc(NC(=O)c2cc(-c3ccccc3)nc3ccccc23)cc1`, the outcome at Cytochrome P450 3A4 [4] was Active. Moreover, the pKi on Cytochrome P450 3A4 [2] is 5.40. Further, on Cytochrome P450 3A4 [5], the Ratio came to 6. For the same compound, the CL on Cytochrome P450 3A4 [3] turned out to be 3.4 µM⁻¹ min⁻¹.

As for `O=C(Nc1ccccc1)c1cc(-c2ccccn2)nc2ccccc12`, the result at Cytochrome P450 3A4 [4] was Active. At Cytochrome P450 3A4 [2], the pKi is 4.84. The CL at Cytochrome P450 3A4 [3] came out at 1.3 µM⁻¹ min⁻¹.

For `Cc1ccc(NC(=O)c2cc(-c3cnccn3)nc3ccccc23)cc1`, on Cytochrome P450 3A4 [1], the result was Active. Further, on Cytochrome P450 3A4 [2], the pKi was 5.57. Besides, on Cytochrome P450 3A4 [3], the CL was determined as 3.3 µM⁻¹ min⁻¹.

In the case of `Cc1ccc(NC(=O)c2cc(-c3ccncc3)nc3ccccc23)cc1`, the result on Cytochrome P450 3A4 [1] was Active. The pKi on Cytochrome P450 3A4 [2] was 6.27. On Cytochrome P450 3A4 [3], the CL is 9.7 µM⁻¹ min⁻¹. For the same compound, the Ratio on Cytochrome P450 3A4 [8] was 4.4.

For `COc1ccc(NC(=O)c2cc(-c3cnccn3)nc3ccccc23)cc1`, the result on Cytochrome P450 3A4 [1] was Active. Moreover, the pKi on Cytochrome P450 3A4 [2] was 4.70. In addition, the CL at Cytochrome P450 3A4 [3] turned out to be 3.4 µM⁻¹ min⁻¹.

In the case of `COc1ccc(NC(=O)c2cc(-c3ccncc3)nc3ccccc23)cc1`, the outcome on Cytochrome P450 3A4 [1] was Active. For the same compound, the pKi on Cytochrome P450 3A4 [2] is 6.27. In addition, at Cytochrome P450 3A4 [3], the CL was 4.4 µM⁻¹ min⁻¹. For the same compound, on Cytochrome P450 3A4 [7], the Kcat amounted to 0.0217 s⁻¹ and the Km was 0.7 µM. For the same compound, the Ratio on Cytochrome P450 3A4 [8] is recorded as 1.4.

Regarding `CN(C)c1ccc(NC(=O)c2cc(-c3ccccc3)nc3ccccc23)cc1`, the result on Cytochrome P450 3A4 [4] was Active. Further, the pKi on Cytochrome P450 3A4 [2] is 4.84. Also, on CYP3A4, the Km is 2.9 µM. Also, the Kcat on Cytochrome P450 3A4 [6] stood at 0.465 s⁻¹; at Cytochrome P450 3A4 [9], 0 s⁻¹. Also, at Cytochrome P450 3A4 [3], the CL was determined as 9.6 µM⁻¹ min⁻¹.

The values above are taken from ChEMBL document CHEMBL2150867, “Comparative study of the affinity and metabolism of type I and type II binding quinoline carboxamide analogues by cytochrome P450 3A4” (J Med Chem, 2012).
